For 59 molecules, inhibition, Ki and IC50 results are on record in patent publication US20150376198A1, “MODULATORS OF VASOPRESSIN RECEPTORS WITH THERAPEUTIC POTENTIAL” (priority 2013, published 2015).

For one experiment, the target named is T1, OT receptor (Homo sapiens, UniProt P30559).
T1 sequence (P30559 1-389): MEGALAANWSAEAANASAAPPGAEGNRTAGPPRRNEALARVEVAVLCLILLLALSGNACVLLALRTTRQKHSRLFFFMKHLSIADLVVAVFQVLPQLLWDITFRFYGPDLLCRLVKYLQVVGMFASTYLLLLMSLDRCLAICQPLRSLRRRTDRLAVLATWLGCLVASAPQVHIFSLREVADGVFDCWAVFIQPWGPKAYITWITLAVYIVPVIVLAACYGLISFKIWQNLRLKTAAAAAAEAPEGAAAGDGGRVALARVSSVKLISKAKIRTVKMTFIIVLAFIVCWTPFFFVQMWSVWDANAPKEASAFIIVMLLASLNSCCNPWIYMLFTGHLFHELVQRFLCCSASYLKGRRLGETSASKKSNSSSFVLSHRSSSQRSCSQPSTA
As to the kind of experiment: OT receptor binding (primary binding at 10 μM and Ki). The note with it: at 10 μM; read-out: OT binding, mean % inhibition. The method, then:
(§1) The default concentration for primary binding experiments was 10 μM.
See Examples for further details.
In the case of `COc1ccc(NC(=O)N2CCN(c3ccccc3C)CC2)cc1` [Compound 1], the inhibition at 10 µM is 12.8%.

Turning to `CCN(C(=O)N1CCN(C(=O)c2ccccc2)CC1)c1ccc(OC)cc1` [Compound 9], the inhibition at 10 µM was determined as 22.3%.

In the case of `Cc1cc(-c2nnc(C)n2-c2ccccc2)ccc1CNC(=O)N1CCN(Cc2cc(O)cc(O)c2)CC1` [Compound 11], the inhibition at 10 µM is 14.8%.

Take `COC(=O)CC(NC(=O)OC(C)(C)C)C(=O)N1CCN(c2ccccc2C)CC1` (stereo not shown) [Compound 12]: the inhibition at 10 µM is 10.6%.

Still in this experiment, the particulars now being: read-out: OT binding Ki.
For `CCN(C(=O)N1CCN(Cc2ccccc2)CC1)c1ccc(OC)cc1` [Compound 8], the Ki came out at 1180 nM.

In another experiment the target is T2, human V1a receptor (Homo sapiens, UniProt P37288).
T2 construct: expressed in transfected cells; host or cells: CHO cells (G418-selected hV1a cell line)
T2 sequence (P37288 whole entry): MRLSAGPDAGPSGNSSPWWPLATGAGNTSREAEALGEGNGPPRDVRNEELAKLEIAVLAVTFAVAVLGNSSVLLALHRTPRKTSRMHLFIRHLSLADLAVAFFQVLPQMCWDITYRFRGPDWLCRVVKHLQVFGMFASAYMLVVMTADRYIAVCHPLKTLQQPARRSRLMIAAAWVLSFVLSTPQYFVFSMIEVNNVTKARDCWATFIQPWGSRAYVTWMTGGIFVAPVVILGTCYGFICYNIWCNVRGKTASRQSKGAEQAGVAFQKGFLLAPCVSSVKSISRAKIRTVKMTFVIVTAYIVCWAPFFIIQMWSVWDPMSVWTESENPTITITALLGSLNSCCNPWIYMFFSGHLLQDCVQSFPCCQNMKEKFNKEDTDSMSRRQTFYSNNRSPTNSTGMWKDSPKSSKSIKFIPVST
The experiment can be described thus: Vasopressin V1a receptor binding assay (3H-AVP competition, CHO cells). The note with it: read-out: V1A binding, mean % inhibition. The procedure:
Data represent Ki values (nM) or mean % inhibition (indicated as %) for exemplary compounds of formula (I) tested versus receptor subtypes.
as §1
Vasopressin V1a Receptor Binding Assay.
A cell line expressing the human Via receptor in CHO cells is used. The hV1a cDNA sequence is described by Thibonnier et al., (1994), and the expression method is the same as described by Morel et al. (1992). The hV1a cell line is grown in alpha-MEM with 10% fetal bovine serum and 250 ug/ml G418 (Gibco, Grand Island, N.Y., USA). For competitive binding assay, hV1a cells are plated into 6-well culture plate at 1:10 dilution from a confluency flask, and maintained in culture for at least two days. Culture medium is then removed, cells washed with 2 ml binding buffer (35 mM Hepes, 0.25% BSA, 1× DMEM, PH=7.0). To each well, 990 μl binding buffer containing 1 nM 3H-AVP is added, followed by 10 μl series diluted Example compounds dissolved in DMSO. All incubations are done in triplicate and dose-inhibition curves consisting of total binding (DMSO) and 5 concentrations (0.1, 1.0, 10, 100, and 1000 nM) of test agents encompassing the IC50. 100 nM cold AVP (Sigma) is used to assess non-specific binding. Cells are incubated for 45 minutes at 37° C., assay mixture is removed and each well is washed three times with PBS (pH=7.4). 1 ml 2% SDS was added per well, plates were let sit for 30 minutes. The whole content of a well is transferred to a scintillation vial. Each well is rinsed with 0.5 ml PBS which is then added to the corresponding vial. Scintillation fluid (Ecoscint) is then added at 3 ml per vial. Samples are counted in a liquid scintillation counter (Beckman LS3801). IC50 values are calculated by Prism Curve fitting software.
On to `COc1ccc(NC(=O)N2CCN(c3ccccc3C)CC2)cc1` [Compound 1], for which the inhibition at 10 µM was found to be 34.1%.

For the molecule `CCN(C(=O)N1CCN(Cc2ccccc2)CC1)c1ccc(OC)cc1` [Compound 8], the inhibition at 10 µM is 35.1%.

In a further experiment the target is human Arginine Vasopressin Receptor 1a (AVPR1a) (Homo sapiens, UniProt P37288). As to the kind of experiment: cell-based.
Chain of human Arginine Vasopressin Receptor 1a (AVPR1a) (P37288 whole entry): as above
Conditions: not given
The molecule `O=C(C1CCN(c2cc(C(F)(F)F)ccn2)CC1)N(CC1CC1)c1ccc(Cl)cc1` [Compound 179] gave a half-maximal inhibitory concentration (IC50) of 37 nM.

Staying with this experiment, now noted: read-out: V1a-R IC50.
For the molecule `O=C(C1CCN(c2ccnc(Cl)c2)CC1)N1CCCCc2cc(Cl)ccc21` [Compound 176], the IC50 came out at 216 nM.

Regarding `N#Cc1ccnc(N2CCC(C(=O)N3CCCCc4cc(Cl)ccc43)CC2)c1` [Compound 177], the IC50 worked out at 28 nM.

Turning to `O=C(C1CCN(c2cc(C(F)(F)F)ccn2)CC1)N1CCCCc2cc(Cl)ccc21` [Compound 178], the IC50 was 17 nM.

`Cc1ccnc(N2CCC(C(=O)N3CCCCc4cc(Cl)ccc43)CC2)n1` [Compound 180]: the IC50 is 17 nM.

For the molecule `N#Cc1ccnc(N2CCC(C(=O)N3CCCCc4cc(Cl)ccc43)CC2)n1` [Compound 181], the half-inhibitory concentration (IC50) was determined as 81 nM.

As to `CCc1cnc(N2CCC(C(=O)N3CCCCc4cc(Cl)ccc43)CC2)nc1` [Compound 182], the half-maximal inhibitory concentration (IC50) was 49 nM.

With `Cc1nc(N2CCC(C(=O)N3CCCCc4cc(Cl)ccc43)CC2)ncc1F` [Compound 183], the IC50 stood at 16 nM.

`Cc1nc(N2CCC(C(=O)N3CCCCc4cc(Cl)ccc43)CC2)ncc1Cl` [Compound 184]: the IC50 is 26 nM.

Regarding `Cc1nc(N2CCC(C(=O)N3CCCCc4cc(Cl)ccc43)CC2)c2ccccc2n1` [Compound 185], the concentration for half-maximal inhibition (IC50) turned out to be 32 nM.

For `Cc1cc(N2CCC(C(=O)N3CCCCc4cc(Cl)ccc43)CC2)nc(C)n1` [Compound 186], the half-inhibitory concentration (IC50) worked out at 405 nM.

On to `O=C(C1CCN(c2ncnc3cc(Cl)ccc23)CC1)N1CCCCc2cc(Cl)ccc21` [Compound 187], for which the IC50 came out at 66 nM.

On to `CCc1cnc(N2CCC(C(=O)N(CC3CC3)c3ccc(Cl)cc3)CC2)nc1` [Compound 188], for which the concentration for half-maximal inhibition (IC50) came to 227 nM.

In the case of `Cc1nc(N2CCC(C(=O)N(CC3CC3)c3ccc(Cl)cc3)CC2)ncc1F` [Compound 189], the IC50 was determined as 48 nM.

For the molecule `Cc1nc(N2CCC(C(=O)N(CC3CC3)c3ccc(Cl)cc3)CC2)c2ccccc2n1` [Compound 191], the IC50 worked out at 74 nM.

Consider `Cc1cc(N2CCC(C(=O)N(CC3CC3)c3ccc(Cl)cc3)CC2)nc(C)n1` [Compound 192], for which the IC50 came to 1250 nM.

Take `O=C(C1CCN(c2ncnc3cc(Cl)ccc23)CC1)N(CC1CC1)c1ccc(Cl)cc1` [Compound 193]: the IC50 came to 861 nM.

Turning to `Cc1cc(C)nc(N2CCC(C(=O)N3CCCC(=O)c4cc(Cl)ccc43)CC2)n1` [Compound 194], the 50% inhibitory concentration (IC50) was determined as 158 nM.

On to `Cc1cc(C)nc(N2CCC(C(=O)N3CCCC(O)c4cc(Cl)ccc43)CC2)n1` (stereo not shown) [Compound 195], for which the 50% inhibitory concentration (IC50) was 26 nM.

Take `Cc1cc(C)nc(N2CCC(C(=O)N3CCCC(F)c4cc(Cl)ccc43)CC2)n1` (stereo not shown) [Compound 196]: the concentration for half-maximal inhibition (IC50) is 84 nM.

As to `Cc1cc(C)nc(N2CCC(C(=O)N3CCCC(C)(O)c4cc(Cl)ccc43)CC2)n1` (stereo not shown) [Compound 197], the IC50 was found to be 134 nM.

For `CCCN(C(=O)C1CCN(c2nc(C)cc(C)n2)CC1)c1ccc(Cl)cc1` [Compound 198], the IC50 came out at 284 nM.

Take `Cc1cc(C)nc(N2CCC(C(=O)N(CCC(C)C)c3ccc(Cl)cc3)CC2)n1` [Compound 199]: the IC50 came to 794 nM.

Turning to `Cc1cc(C)nc(N2CCC(C(=O)N(CC3CCC3)c3ccc(Cl)cc3)CC2)n1` [Compound 200], the half-inhibitory concentration (IC50) worked out at 229 nM.

Regarding `C#CCN(C(=O)C1CCN(c2nc(C)cc(C)n2)CC1)c1ccc(Cl)cc1` [Compound 201], the IC50 turned out to be 28 nM.

For `O=C(C1CCN(c2ncc(C3CC3)cn2)CC1)N(CC1CC1)c1ccc(Cl)cc1` [Compound 202], the IC50 amounted to 348 nM.

Turning to `O=C(C1CCN(c2ncc(C(F)(F)F)cn2)CC1)N(CC1CC1)c1ccc(Cl)cc1` [Compound 203], the half-inhibitory concentration (IC50) came out at 570 nM.

Turning to `O=C(C1CCN(c2ncc3ccccc3n2)CC1)N(CC1CC1)c1ccc(Cl)cc1` [Compound 204], the IC50 worked out at 97 nM.

`O=C(C1CCN(c2ncnc3ccc(F)cc23)CC1)N(CC1CC1)c1ccc(Cl)cc1` [Compound 205]: the half-maximal inhibitory concentration (IC50) turned out to be 74 nM.

In the case of `O=C(C1CCN(c2nc3ccccc3o2)CC1)N(CC1CC1)c1ccc(Cl)cc1` [Compound 206], the half-maximal inhibitory concentration (IC50) stood at 130 nM.

As to `O=C(C1CCN(c2nc3ccc(Cl)cc3o2)CC1)N(CC1CC1)c1ccc(Cl)cc1` [Compound 207], the IC50 worked out at 350 nM.

`O=C(C1CCN(c2ncc3c(n2)CCC3)CC1)N(CC1CC1)c1ccc(Cl)cc1` [Compound 208]: the concentration for half-maximal inhibition (IC50) was found to be 33 nM.

As to `O=C(C1CCN(c2ncc(C3CC3)cn2)CC1)N1CCCCc2cc(Cl)ccc21` [Compound 209], the IC50 is 69 nM.

`O=C(C1CCN(c2ncc(C(F)(F)F)cn2)CC1)N1CCCCc2cc(Cl)ccc21` [Compound 210]: the half-inhibitory concentration (IC50) was 89 nM.

Regarding `O=C(C1CCN(c2ncc3ccccc3n2)CC1)N1CCCCc2cc(Cl)ccc21` [Compound 211], the IC50 came out at 16 nM.

Take `O=C(C1CCN(c2ncnc3ccc(F)cc23)CC1)N1CCCCc2cc(Cl)ccc21` [Compound 212]: the IC50 was found to be 49 nM.

Consider `O=C(C1CCN(c2nc3ccccc3o2)CC1)N1CCCCc2cc(Cl)ccc21` [Compound 213], for which the half-maximal inhibitory concentration (IC50) was found to be 24 nM.

Regarding `O=C(C1CCN(c2nc3ccc(Cl)cc3o2)CC1)N1CCCCc2cc(Cl)ccc21` [Compound 214], the half-inhibitory concentration (IC50) is 45 nM.

For `O=C(C1CCN(c2ncc3c(n2)CCC3)CC1)N1CCCCc2cc(Cl)ccc21` [Compound 215], the IC50 stood at 7 nM.

Take `Cc1cc(N2CCC(C(=O)N(CC3CC3)c3ccc(Cl)cc3)CC2)ncc1Cl` [Compound 216]: the IC50 was found to be 41 nM.

As to `Cc1cc(Cl)cnc1N1CCC(C(=O)N(CC2CC2)c2ccc(Cl)cc2)CC1` [Compound 217], the IC50 was 50 nM.

With `Cc1cnc(N2CCC(C(=O)N(CC3CC3)c3ccc(Cl)cc3)CC2)c(F)c1` [Compound 218], the IC50 was found to be 20 nM.

Take `O=C(C1CCN(c2ncc(Cl)cc2F)CC1)N(CC1CC1)c1ccc(Cl)cc1` [Compound 219]: the concentration for half-maximal inhibition (IC50) amounted to 61 nM.

On to `Cc1cc(N2CCC(C(=O)N3CCCCc4cc(Cl)ccc43)CC2)ncc1Cl` [Compound 220], for which the half-maximal inhibitory concentration (IC50) was 7 nM.

For the molecule `Cc1cc(Cl)cnc1N1CCC(C(=O)N2CCCCc3cc(Cl)ccc32)CC1` [Compound 221], the 50% inhibitory concentration (IC50) is 7 nM.

For the molecule `Cc1cnc(N2CCC(C(=O)N3CCCCc4cc(Cl)ccc43)CC2)c(F)c1` [Compound 222], the IC50 was determined as 5 nM.

Take `O=C(C1CCN(c2ncc(Cl)cc2F)CC1)N1CCCCc2cc(Cl)ccc21` [Compound 223]: the 50% inhibitory concentration (IC50) was 19 nM.

On to `O=C(C1CCN(c2ccc(F)cn2)CC1)N1CCCCc2cc(Cl)ccc21` [Compound 224], for which the 50% inhibitory concentration (IC50) turned out to be 11 nM.

`O=C(C1CCN(c2ccc(Cl)cn2)CC1)N1CCCCc2cc(Cl)ccc21` [Compound 225]: the IC50 was determined as 11 nM.

Regarding `O=C(C1CCN(c2ccc(C(F)(F)F)cn2)CC1)N1CCCCc2cc(Cl)ccc21` [Compound 226], the half-maximal inhibitory concentration (IC50) worked out at 20 nM.

For the molecule `Cc1cc(C)nc(N2CCC(C(=O)N(CC3(C)COC3)c3ccc(Cl)cc3)CC2)n1` [Compound 227], the IC50 was 517 nM.

In the case of `CCC(CC)N(C(=O)C1CCN(c2nc(C)cc(C)n2)CC1)c1ccc(Cl)cc1` [Compound 228], the half-inhibitory concentration (IC50) turned out to be 4940 nM.

As to `O=C1Nc2ccccc2C2(CCN(C(=O)N3CCCCc4cc(Cl)ccc43)CC2)O1` [V:292], the IC50 is 305 nM.

For `O=C(N1CCC2(CC1)OCc1ccccc12)N1CCCCc2cc(Cl)ccc21` [V:293], the IC50 was 78 nM.
